What follows are compounds tested against T1, sodium-proton exchanger of subtype 3 (NHE3) (Homo sapiens, UniProt P48764) (assay: Recovery of intracellular pH (pHi) after acidification in LAP1 cells stably expressing NHE3 (BCECF fluorescence, FLIPR)). Settings: Activity range (inhibitory effect on NHE3), LAP1 cells stably expressing NHE3; pH recovery after acidification; range 1 is % inhibition at 10 μM.
T1 construct: expressed in transfected cells
T1 sequence (P48764 26-834): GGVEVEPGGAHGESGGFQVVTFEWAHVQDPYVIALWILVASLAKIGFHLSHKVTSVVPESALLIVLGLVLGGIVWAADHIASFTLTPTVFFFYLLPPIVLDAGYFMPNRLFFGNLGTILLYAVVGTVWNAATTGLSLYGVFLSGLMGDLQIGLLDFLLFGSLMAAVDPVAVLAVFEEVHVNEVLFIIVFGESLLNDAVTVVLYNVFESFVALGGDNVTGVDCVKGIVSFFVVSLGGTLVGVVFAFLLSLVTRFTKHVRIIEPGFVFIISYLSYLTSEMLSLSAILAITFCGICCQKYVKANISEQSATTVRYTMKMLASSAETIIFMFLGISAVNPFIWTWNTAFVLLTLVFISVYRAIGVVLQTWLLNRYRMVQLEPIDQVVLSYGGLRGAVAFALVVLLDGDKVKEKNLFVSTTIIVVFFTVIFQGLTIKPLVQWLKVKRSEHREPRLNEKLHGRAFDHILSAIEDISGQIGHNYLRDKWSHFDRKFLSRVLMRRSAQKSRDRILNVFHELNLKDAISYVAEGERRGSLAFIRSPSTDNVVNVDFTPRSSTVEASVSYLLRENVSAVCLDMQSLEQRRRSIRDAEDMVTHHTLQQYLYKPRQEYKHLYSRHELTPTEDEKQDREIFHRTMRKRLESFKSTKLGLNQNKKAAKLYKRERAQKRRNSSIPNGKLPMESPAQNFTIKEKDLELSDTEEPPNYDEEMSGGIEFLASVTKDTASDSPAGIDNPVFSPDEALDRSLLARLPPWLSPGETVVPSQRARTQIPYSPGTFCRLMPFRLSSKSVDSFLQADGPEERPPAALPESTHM
Assay type: cell-based

SMILES | IC50
N#Cc1ccc(O[C@H]2c3ccccc3C[C@@H]2N2CCCC2)cc1Cl (racemic) [Example 392, 2-chloro-4-(rac-trans-(1,2)-2-pyrrolidin-1-ylindan-1-yloxy)benzonitrile] | 1000 to 10000 nM

Same assay, conditions: LAP1, read-out: Activity range (inhibitory effect on NHE3)

SMILES | inhibition at 10 µM
CC(=O)Nc1ccccc1OC1c2ccccc2CC1N1CCCC1 (racemic) [Example 635, N-[2-(rac-trans-(1,2)-2-pyrrolidin-1-ylindan-1-yloxy)phenyl]acetamide] | 20 to 50%

Same assay, conditions: LAP1 cells stably expressing NHE3; pH recovery after acidification; range 1 is % inhibition at 10 μM; read-out: Activity range (inhibitory effect on NHE3)

inhibition at 10 µM | IC50 | SMILES
20 to 50% | – | N[C@H]1CCCN([C@H]2CCc3ccccc3[C@@H]2Oc2cccc(F)c2)C1 (racemic) [Example 168, (S)-1-[rac-trans-(1,2)-1-(3-fluorophenoxy)-1,2,3,4-tetrahydronaphthalen-2-yl]piperidin-3-ylamine]
– | 1000 to 10000 nM | N#Cc1ccc(O[C@@H]2c3ccccc3C[C@H]2N2CCC(CN)CC2)cc1Cl (racemic) [Example 546, 4-[rac-trans-(1,2)-2-(4-aminomethylpiperidin-1-yl)indan-1-yloxy]-2-chlorobenzonitrile]
20 to 50% | – | COCCc1ccc(O[C@H]2c3ccccc3CC[C@@H]2N2CCC[C@@H](N)C2)cc1 (racemic) [Example 115, (R)-1-{rac-trans-(1,2)-1-[4-(2-methoxyethyl)phenoxy]-1,2,3,4-tetrahydronaphthalen-2-yl}piperidin-3-ylamine]
– | < 1000 nM | NS(=O)(=O)c1ccc(O[C@@H]2c3ccccc3C[C@H]2NC2CCCC2)c(F)c1 (racemic) [Example 460, 4-(2-cyclopentylaminoindan-1-yloxy)-3-fluorobenzenesulfonamide]
20 to 50% | – | FC(F)(F)c1cnccc1O[C@H]1c2ccccc2C[C@@H]1CN1CCCC1 (racemic) [Example 462, 4-(2-pyrrolidin-1-ylmethylindan-1-yloxy)-3-trifluoromethylpyridine]
– | < 1000 nM | C[C@@H]1CN([C@H]2Cc3c(Cl)cc(Cl)cc3[C@@H]2Oc2ccc(S(C)(=O)=O)cc2)CCN1 [Example 101, (R)-1-[trans-(1S,2S)-4,6-dichloro-1-(4-methanesulfonylphenoxy)indan-2-yl]-3-methylpiperazine]
20 to 50% | – | CS(=O)(=O)c1ccc(O[C@H]2c3cc(Cl)cc(Cl)c3C[C@@H]2N2CCC(F)(F)CC2)cc1 [Example 250, 1-[(1S,2S)-4,6-dichloro-1-(4-methanesulfonylphenoxy)indan-2-yl]-4,4-difluoropiperidine]
– | 1000 to 10000 nM | CC(C)(C)N[C@H]1Cc2ccccc2[C@@H]1Oc1ccc(S(C)(=O)=O)cc1 (racemic) [Example 701, tert-butyl-[1-(4-methanesulfonylphenoxy)indan-2-yl]amine]
20 to 50% | – | CS(=O)(=O)c1ccc(O[C@H]2c3ccccc3C[C@@H]2CN2CCOCC2)cc1 (racemic) [Example 487, 4-[1-(4-methanesulfonylphenoxy)indan-2-ylmethyl]morpholine]
– | < 1000 nM | Cc1nnc(C)n1-c1ccc(O[C@H]2c3ccccc3C[C@@H]2N2CCCC2)c(Cl)c1 (racemic) [Example 490, 4-[3-chloro-4-(rac-trans-(1,2)-2-pyrrolidin-1-ylindan-1-yloxy)phenyl]-3,5-dimethyl-4H-[1,2,4]triazole]
20 to 50% | – | Cc1noc(C)c1-c1cc(F)ccc1O[C@H]1c2ccccc2C[C@@H]1N1CCCC1 [Example 503, 4-[5-fluoro-2-(trans-(1S,2S)-2-pyrrolidin-1-ylindan-1-yloxy)phenyl]-3,5-dimethylisoxazole]
– | 1000 to 10000 nM | O=C1OCc2cc(O[C@H]3c4ccccc4C[C@@H]3N3CCCC3)ccc21 (racemic) [Example 571, 5-(rac-trans-(1,2)-2-pyrrolidin-1-ylindan-1-yloxy)-3H-isobenzofuran-1-one]
20 to 50% | – | CS(=O)(=O)c1ccccc1O[C@H]1c2ccccc2CC[C@@H]1N1CCC[C@H](N)C1 (racemic) [Example 156, (S)-1-[rac-trans-(1,2)-1-(2-methanesulfonylphenoxy)-1,2,3,4-tetrahydronaphthalen-2-yl]piperidin-3-ylamine]
20 to 50% | – | CS(=O)(=O)c1ccc(O[C@H]2c3cc(Cl)cc(Cl)c3C[C@@H]2N2CCN3CCC[C@H]3C2)cc1 [Example 208, (S)-2-[(S)-4-(S)-chloro-6-chloro-1-(4-methanesulfonylphenoxy)indan-2-yl]octahydropyrrolo[1,2-a]pyrazine]

The remaining lines, values behind:

SMILES | inhibition at 10 µM | IC50
O=C1CSC(=O)N1c1ccc(O[C@H]2c3cc(Cl)cc(Cl)c3C[C@@H]2N2CC[C@@H](O)C2)cc1 [Example 428, 3-{4-[(1S,2S)-4,6-dichloro-2-((R)-3-hydroxypyrrolidin-1-yl)indan-1-yloxy]phenyl}thiazolidine-2,4-dione] | – | < 1000 nM
Cn1ccn(-c2ccc(F)c(O[C@H]3c4cc(Cl)cc(Cl)c4C[C@@H]3N3CC[C@@H](O)C3)c2)c1=O [Example 313, 1-{3-[(1S,2S)-4,6-dichloro-2-((R)-3-hydroxypyrrolidin-1-yl)indan-1-yloxy]-4-fluorophenyl}-3-methyl-1,3-dihydroimidazol-2-one] | – | < 1000 nM
N#Cc1cc(Cl)ccc1O[C@H]1c2ccccc2CC[C@@H]1N1CCC[C@H](N)C1 (racemic) [Example 371, 2-[rac-trans-(1,2)-2-((S)-3-aminopiperidin-1-yl)-1,2,3,4-tetrahydronaphthalen-1-yloxy]-5-chlorobenzonitrile] | 20 to 50% | –
CS(=O)(=O)c1ccc(O[C@H]2c3cc(Cl)cc(Cl)c3C[C@@H]2N2CCCNCC2)c(Cl)c1 [Example 295, 1-[trans-(1S,2S)-4,6-dichloro-1-(2-chloro-4-methanesulfonylphenoxy)indan-2-yl]-[1,4]diazepane] | – | < 1000 nM
CN1CC(=O)N(c2ccc(Cl)c(O[C@H]3c4cc(Cl)cc(F)c4C[C@@H]3N3CC[C@@H](O)C3)c2)C1=O [Example 435, 3-{4-chloro-3-[(1S,2S)-6-chloro-4-fluoro-2-((R)-3-hydroxypyrrolidin-1-yl)indan-1-yloxy]phenyl}-1-methylimidazolidine-2,4-dione] | – | 1000 to 10000 nM
CCCC1(N)CCCN([C@H]2Cc3c(Cl)cc(Cl)cc3[C@@H]2Oc2cccc(NC(C)=O)c2)C1 (mixture of isomers) [Example 693, N-{3-[trans-(1S,2S)-2-(3-amino-3-propylpiperidin-1-yl)-4,6-dichloroindan-1-yloxy]phenyl}acetamide] | – | < 1000 nM
Cn1ccn(-c2cc(O[C@H]3c4cc(Cl)cc(Cl)c4C[C@@H]3N3CC[C@@H](O)C3)ccc2F)c1=O [Example 745, 1-{5-[trans-(1S,2S)-4,6-Dichloro-2-((R)-3-hydroxy-pyrrolidin-1-yl)-indan-1-yloxy]-2-fluoro-phenyl}-3-methyl-1,3-dihydro-imidazol-2-one] | 20 to 50% | –
CC(=O)Nc1cccc(O[C@H]2c3cc(F)cc(Cl)c3C[C@@H]2N2CCCC2)c1 (racemic) [Example 651, N-[3-(rac-trans-(1,2)-4-chloro-6-fluoro-2-pyrrolidin-1-ylindan-1-yloxy)phenyl]acetamide] | – | 1000 to 10000 nM
CS(=O)(=O)c1ccc(CO[C@H]2c3cc(Cl)cc(Cl)c3C[C@@H]2N2CC[C@@H](O)C2)c(Cl)c1 [Example 24, (R)-1-[(1S,2S)-4,6-dichloro-1-(2-chloro-4-methanesulfonylbenzyloxy)indan-2-yl]pyrrolidin-3-ol] | 20 to 50% | –
N#Cc1ccc2cccc(O[C@H]3c4ccccc4CC[C@@H]3N3CCC[C@H](N)C3)c2n1 (racemic) [Example 596, 8-[rac-trans-(1,2)-2-((S)-3-aminopiperidin-1-yl)-1,2,3,4-tetrahydronaphthalen-1-yloxy]quinoline-2-carbonitrile] | – | 1000 to 10000 nM
N[C@H]1CCCN([C@H]2CCc3ccccc3[C@@H]2Oc2ccc(Br)cc2-c2cc[nH]n2)C1 (racemic) [Example 203, (S)-1-{rac-trans-(1,2)-1-[4-bromo-2-(1H-pyrazol-3-yl)phenoxy]-1,2,3,4-tetrahydronaphthalen-2-yl}piperidin-3-ylamine] | 20 to 50% | –
Cc1nnc(C)n1-c1ccc(O[C@H]2c3cc(Cl)cc(F)c3C[C@@H]2N2CC[C@@H](O)C2)c(F)c1 [Example 142, (R)-1-{trans-(1S,2S)-6-chloro-1-[4-(3,5-dimethyl-[1,2,4]triazol-4-yl)-2-fluorophenoxy]-4-fluoroindan-2-yl}pyrrolidin-3-ol] | – | < 1000 nM
COCCN(C)[C@H]1Cc2c(Cl)cc(Cl)cc2[C@@H]1Oc1ccc(-n2c(C)nnc2C)cc1 [Example 243, {trans-(1S,2S)-4,6-dichloro-1-[4-(3,5-dimethyl-[1,2,4]triazol-4-yl)phenoxy]indan-2-yl}-(2-methoxyethyl)-methylamine] | – | < 1000 nM
NCCc1c[nH]c2ccc(O[C@H]3c4ccccc4CC[C@@H]3N3CCC[C@H](N)C3)cc12 (racemic) [Example 201, (S)-1-{rac-trans-(1,2)-1-[3-(2-aminoethyl)-1H-indol-5-yloxy]-1,2,3,4-tetrahydronaphthalen-2-yl}piperidin-3-ylamine] | – | 1000 to 10000 nM
